Patent US20140235630A1, “COMPOSITIONS AND METHODS FOR THE TREATMENT OF PROLIFERATIVE DISEASES” (Beth Israel Deaconess Medical Center, Inc., priority 2011, published 2014)
Values joined by “and” are separate entries in the source; they are usually repeats but may differ in a detail not shown here. Identical values can stand only once.

Columns and labels:
[1] = test system: patient-derived tumor with BRCA1 germline mutation 185delAG; experiment: Patient-derived BRCA1 185delAG breast tumor xenograft growth; type: in vivo, human; conditions: tumor resistant to standard chemotherapy and Compound B; Compound A 30 mg/kg/day, Compound B 50 mg/kg/day
Source text: (§1) FIGS. 6G and 6H are graphs showing the relative tumor volume (RTV) over time of tumors from breast cancer tissues from two patients, one with a 185delAG germline mutation (6G) and the other one with a 2080delA germline mutation (6H), propagated as subcutaneous implants in nude mice. Tumors were allowed to grow to a size of 5 mm when mice were randomized to treatments with either vehicle control (squares), Compound A (upside-down triangles), Compound B (triangles), or their combination (diamonds) (n=6 for each cohort, same dosing as in 6F).
(§2) All animal experiments were conducted in accordance with IACUC-approved protocols at Beth Israel Deaconess Medical Center, Boston, and at the University of Vall d'Hebron, Barcelona, Spain. […] The floxed or wild type status of Brca1, the presence of the MMTV-Cre transgene and the p53 heterozygosity were determined by PCR. […] When tumormetrics were performed, the length and width of the tumor was determined using calipers, and the tumor volume was determined (width^2×length/2). Tumor volume was used as a measure of growth and was recorded as ratio to tumor volume at diagnosis. Tumor doubling times were calculated using the functions of the best fit curves for all data points in each treatment modality. […]

[2] = test system: patient-derived tumor with BRCA1 germline mutation 2080delA; experiment: Patient-derived BRCA1 2080delA breast tumor xenograft growth; type: in vivo, human; conditions: untreated patient; Compound A 30 mg/kg/day, Compound B 50 mg/kg/day
Source text: as §1, §2

[3] = test system: BRCA1-deleted mammary tumors of MMTV-CreBRCA1^f/fp53+/− mice; experiment: 18FDG PET-CT scanning of tumor-bearing mice; type: in vivo, mouse; conditions: for FDG-uptake of treated tumors: Compound B-treated versus Compound A or combination
Protocol: All animal experiments were conducted in accordance with IACUC-approved protocols at Beth Israel Deaconess Medical Center, Boston, and at the University of Vall d'Hebron, Barcelona, Spain. Female MMTV-CreBRCA1^f/fp53+/− mice were obtained by breeding BRCA1 conditional knockout mice from the NIH repository (01XC8, strain C57BL/6) (Xu et al. Nat. Genet., 22: 37-43, 1999); with MMTV-Cre (Jackson Laboratory B6129-TgN(MMTV-Cre)4Mam) (Wagner et al. Nucleic Acids Res., 25: 4323-4330, 1997) and p53 knockout (Taconic Farms, P53N12-M, C57BL/6) (Donehower et al. Nature, 356: 215-221, 1992). At the time of the study, mice had been inbred for 4 years (>7 generations). The floxed or wild type status of Brca1, the presence of the MMTV-Cre transgene and the p53 heterozygosity were determined by PCR. Mice were examined for the occurrence of tumors twice weekly. When tumormetrics were performed, the length and width of the tumor was determined using calipers, and the tumor volume was determined (width^2×length/2). Tumor volume was used as a measure of growth and was recorded as ratio to tumor volume at diagnosis. Tumor doubling times were calculated using the functions of the best fit curves for all data points in each treatment modality. 5-(2,6-dimorpholinopyrimidin-4-yl)-4-(trifluoromethyl)pyridin-2-amine (Compound A) was resuspended in 5% Methylcellulose solution (Fluka) and administered via oral gavage at 50 mg/kg/day or 30 mg/kg/day. 4-[[3-[4-(cyclopropanecarbonyl)piperazine-1-carbonyl]-4-fluorophenyl]methyl]-2H-phthalazin-1-one (Compound B) was resuspended for intraperitoneal administration as described (Rottenberg et al. Proc. Natl. Acad. Sci. USA., 105: 17079-17084, 2008) and dosed at 50 mg/kg/day. For patient-derived tumor grafts consent for tumor use was obtained from patients under a protocol approved by the Vall d'Hebron Hospital Clinical Investigation Ethical Committee. Tumors were subcutaneously implanted in 6-week-old female HsdCpb:NMRI-Foxn1nu mice (Harlan Laboratories, Italy) Animals were supplemented with 1 μM estradiol (Sigma) in the drinking water. After tumor graft growth, tumor tissue was re-implanted into recipient mice, which were randomized upon implant growth.
0.3 to 0.4 mCi of fluorine-18-deoxyglucose were injected intravenously through the retroorbital vein of the anesthetized mouse. After a “washout” period of 1 hour the mouse was imaged on a NanoPET/CT (Bioscan/Mediso) scanner. The NanoPET/CT is a high-resolution small-animal multimodality scanner consisting of 12 lutetium yttrium oxyorthosilicate (LYSO) detector blocks. The blocks comprise a total of 39,780 crystals each with a dimension of 1.2×1.2×13 mm^3.
Images were acquired in three dimensions. The mice remained supine and maintained their position throughout the procedure. First, a CT scan was performed and second, a whole-body ^18F-FDG PET emission scan was acquired covering the same area as the CT scan. Counts per minute (cpm) were obtained, converted to mCi, and values were normalized for ROI volume and injected dose. In order to correct for metabolic variability between exams and to determine tumor-specific uptake changes, FDG-uptake rates were corrected for cardiac FDG-uptake (μCi injected/voxels^tumor)/(μCi/μCi injected/voxels^heart). For studies involving repeat scanning, the change in tumor-specific FDG-uptake was determined in percent (1−(FDG-uptake^post/FDG-uptake^pre)×100) Animals were housed in the Longwood SAIF satellite animal facility between scans.

[4] = after 2 weeks of continued treatment
[5] = within 48 hours of instituting treatment

O=C(c1cc(Cc2n[nH]c(=O)c3ccccc23)ccc1F)N1CCN(C(=O)C2CC2)CC1 [Compound B, 4-[[3-[4-(cyclopropanecarbonyl)piperazine-1-carbonyl]-4-fluorophenyl]methyl]-2H-phthalazin-1-one, reference compound]
growth of patient-derived tumor (relative tumor volume) [1]: modestly attenuated | sensitivity of patient-derived tumor (relative tumor volume) [2]: exquisite sensitivity | FDG-uptake of treated tumors [3]: increased FDG-uptake

Nc1cc(C(F)(F)F)c(-c2cc(N3CCOCC3)nc(N3CCOCC3)n2)cn1 [Compound A, 5-(2,6-dimorpholinopyrimidin-4-yl)-4-(trifluoromethyl)pyridin-2-amine]
growth of patient-derived tumor (relative tumor volume) [1]: modestly attenuated | sensitivity of patient-derived tumor (relative tumor volume) [2]: exquisite sensitivity | FDG-uptake of treated tumors [3]: strongly reduced FDG-uptake | median decrease in FDG-uptake [3, 4]: 54% | range of decrease in FDG-uptake [3, 4]: 45.5-70.5% | decrease in 18FDG-uptake, individual tumors of one mouse ([3]; within 48 hours after start, 50 mg/kg/day by gavage, four simultaneous tumors, 50 mg/kg/day): 45% and 64% (2×) and 56% | median decrease in FDG-uptake [3, 5]: 46.7% | range of decrease in FDG-uptake [3, 5]: 38.1-92.3
